Laboratory results taken from patent publication US4542144A, “Anticonvulsant N-aryl-N'-(2-thiazolidinylidene)ureas” (McNeilab Inc., priority 1983, dated 1985).

Tested on: tonic extensor seizure
Experiment: Maximal Electroshock (MES) test, block of tonic extensor seizure, 45' post dose p.o.
Format: in vivo, mice
Set-up: key to MES test results (IA): IA: Inactive
Settings: for MES test results (IA) / ED50 / % block (MES test) / MES test results (activity in words): mice, 45' post dose; for ED50: Mus musculus, po, 0.75 h; for potency of 3-Me compound relative to 3-H compound (more potent than 3-H): MES ED50, Compd. No. 18 vs No. 17, No. 28 vs No. 27
From the text: Activity in the MES test, indicating anticonvulsant activity, is characterized by a block of the tonic extensor seizure caused by applying an electric shock to mice via corneal electrodes as described in Swinyard et al., J. Pharmacol. Exp. Ther., 106, 319-330 (1952) and recorded as % block. A more recent description of current practice in anticonvulsant drug screening has also been reported by Swinyard et al., Epilepsia, 19, 409-428 (1978).

[1] = Table II, 200 mg/kg p.o., only dose tested

SMILES: Cc1ccc(NC(=O)N=C2NCCS2)cc1C [No. 22a, N-(3,4-dimethylphenyl)-N'-(2-thiazolidinylidene)urea]
- MES test results (IA) (Table II, p.o., dose not given): IA

SMILES: O=C(N=C1NCCS1)Nc1ccccc1 [Table I No. 1, reference compound]
- ED50 (Table I): > 200 mg/kg

SMILES: Cc1ccccc1NC(=O)N=C1NCCS1 [Table I No. 2, reference compound]
- ED50 (Table I): 232 mg/kg
- % block (MES test) (Table I, 200 mg/kg p.o.): 30%

SMILES: CN1CCSC1=NC(=O)Nc1ccccc1 [compound 1]
- MES test results (IA) (Table II, 100 mg/kg p.o., only dose tested): IA

SMILES: Cc1ccccc1NC(=O)N=C1SCCN1C [compound 2]
- ED50 (Table II): 4.8 mg/kg

SMILES: Cc1cccc(NC(=O)N=C2SCCN2C)c1 [compound 3]
- ED50 (Table II): < 200 mg/kg
- % block (MES test) [1]: 70%

SMILES: Cc1ccc(NC(=O)N=C2SCCN2C)cc1 [compound 4]
- MES test results (IA) (Table II, 200 mg/kg p.o.): IA

SMILES: CN1CCSC1=NC(=O)Nc1ccccc1Cl [compound 5]
- ED50 (Table II): < 200 mg/kg
- % block (MES test) [1]: 70%
- MES test results (activity in words) [1]: Active

SMILES: CN1CCSC1=NC(=O)Nc1cccc(Cl)c1 [compound 6]
- MES test results (IA) (Table II, 200 mg/kg p.o.): IA

SMILES: CN1CCSC1=NC(=O)Nc1ccc(Cl)cc1 [compound 7]
- MES test results (IA) (Table II, 200 mg/kg p.o.): IA

SMILES: COc1ccccc1NC(=O)N=C1SCCN1C [compound 8]
- ED50 (Table II): 235 mg/kg

SMILES: COc1cccc(NC(=O)N=C2SCCN2C)c1 [compound 9]
- ED50 (Table II): < 200 mg/kg
- % block (MES test) [1]: 80%
- MES test results (activity in words) [1]: Active

SMILES: COc1ccc(NC(=O)N=C2SCCN2C)cc1 [compound 10]
- MES test results (IA) (Table II, 200 mg/kg p.o.): IA

SMILES: CN1CCSC1=NC(=O)Nc1ccccc1C(F)(F)F [compound 11]
- ED50 (Table II): 92.2 mg/kg

SMILES: CN1CCSC1=NC(=O)Nc1cccc(C(F)(F)F)c1 [compound 12]
- MES test results (IA) (Table II, 200 mg/kg p.o.): IA

SMILES: CN1CCSC1=NC(=O)Nc1ccc(C(F)(F)F)cc1 [compound 13]
- MES test results (IA) (Table II, 200 mg/kg p.o.): IA

SMILES: CN1CCSC1=NC(=O)Nc1ccc([N+](=O)[O-])cc1 [compound 14]
- MES test results (IA) (Table II, 200 mg/kg p.o.): IA

SMILES: CCc1cccc(CC)c1NC(=O)N=C1SCCN1C [compound 15]
- ED50 (Table II): 14.2 mg/kg

SMILES: CCc1cccc(C)c1NC(=O)N=C1SCCN1C [compound 16]
- ED50 (Table II): 17.4 mg/kg

SMILES: Cc1cccc(C)c1NC(=O)N=C1NCCS1 [compound 17]
- ED50 (Table II): 31 mg/kg

SMILES: Cc1cccc(C)c1NC(=O)N=C1SCCN1C [compound 18]
- potency of 3-Me compound relative to 3-H compound (more potent than 3-H): 2.6 ×
- ED50 (Table II): 11.8 mg/kg

SMILES: Cc1ccc(C)c(NC(=O)N=C2SCCN2C)c1 [compound 19]
- ED50 (Table II): 66.1 mg/kg

SMILES: Cc1ccc(NC(=O)N=C2SCCN2C)c(C)c1 [compound 20]
- ED50 (Table II): 178 mg/kg

SMILES: Cc1cccc(NC(=O)N=C2SCCN2C)c1C [compound 21]
- ED50 (Table II): 37.2 mg/kg

SMILES: Cc1ccc(NC(=O)N=C2SCCN2C)cc1C [compound 22]
- ED50 (Table II): > 200 mg/kg
- % block (MES test) (Table II, p.o., dose not given): 10%

SMILES: Cc1cc(C)cc(NC(=O)N=C2SCCN2C)c1 [compound 23]
- MES test results (IA) (Table II, 200 mg/kg p.o.): IA

SMILES: CN1CCSC1=NC(=O)Nc1cc(C(F)(F)F)cc(C(F)(F)F)c1 [compound 24]
- MES test results (IA) (Table II, 200 mg/kg p.o.): IA

SMILES: Cc1cc(C)c(NC(=O)N=C2SCCN2C)c(C)c1 [compound 25]
- ED50 (Table II): 66.5 mg/kg

SMILES: Cc1cccc(Cl)c1NC(=O)N=C1SCCN1C [compound 26]
- ED50 (Table II): 15.3 mg/kg

SMILES: O=C(N=C1NCCS1)Nc1c(Cl)cccc1Cl [compound 27]
- ED50 (Table II): 70.7 mg/kg

SMILES: CN1CCSC1=NC(=O)Nc1c(Cl)cccc1Cl [compound 28]
- potency of 3-Me compound relative to 3-H compound (more potent than 3-H): 4 ×
- ED50 (Table II): 17.4 mg/kg

SMILES: CN1CCSC1=NC(=O)Nc1c(F)cccc1F [compound 29]
- ED50 (Table II): 22.7 mg/kg

SMILES: CN1CCSC1=NC(=O)Nc1c(Br)cccc1Br [compound 30]
- ED50 (Table II): 69.6 mg/kg

SMILES: CN1CCSC1=NC(=O)Nc1c(Br)cc(F)cc1Br [compound 31]
- ED50 (Table II): < 200 mg/kg
- % block (MES test) [1]: 80%
- MES test results (activity in words) [1]: Active

SMILES: CN1CCSC1=NC(=O)Nc1c(Cl)cc(Cl)cc1Cl [compound 32]
- MES test results (IA) (Table II, 200 mg/kg p.o.): IA

SMILES: COc1cccc(OC)c1NC(=O)N=C1SCCN1C [compound 33]
- ED50 (Table II): 41.2 mg/kg

SMILES: COc1ccc(NC(=O)N=C2SCCN2C)cc1OC [compound 34]
- ED50 (Table II): > 200 mg/kg
- % block (MES test) [1]: 20%
